According to PubChem BioAssay AID248 (DTP/NCI, 2004):
Where “and” joins values, the source holds several entries; their conditions need not be identical. Identical values can stand only once. Inconclusive results and toxic doses are left out. Rule as the data show it: active = T/C of 150% or more; inactive = T/C below 125%.

Tested on: L1210 leukemia ip in BDF1 mice, survival T/C
Experiment: NCI In Vivo Anticancer Drug Screen. Data for tumor model L1210 Leukemia (intraperitoneal) in B6D2F1 (BDF1) mice
Conditions: endpoint: mean survival time, higher = longer survival
Method in brief: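 Value reflects the ratio of survival in compound-treated mice to survival in vehicle-treated controls, with both groups carrying the same transplanted tumor.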

[1] = dose: 50.0 mg/kg/injection, schedule: Q04DX003 (ip), vehicle: saline
[2] = dose: 100.0 mg/kg/injection, schedule: Q04DX003 (ip), vehicle: Klucel (hydroxypropylcellulose) (HPC)
[3] = dose: 100.0 mg/kg/injection, schedule: Q04DX003 (ip), vehicle: saline
[4] = dose: 200.0 mg/kg/injection, schedule: Q04DX003 (ip), vehicle: Klucel (hydroxypropylcellulose) (HPC)
[5] = dose: 400.0 mg/kg/injection, schedule: Q04DX003 (ip), vehicle: Klucel (hydroxypropylcellulose) (HPC)
[6] = dose: 100.0 mg/kg/injection, schedule: Q01DX001 (ip), vehicle: Klucel (hydroxypropylcellulose) (HPC)
[7] = dose: 200.0 mg/kg/injection, schedule: Q01DX001 (ip), vehicle: Klucel (hydroxypropylcellulose) (HPC)
[8] = dose: 12.5 mg/kg/injection, schedule: Q04DX002 (ip), vehicle: saline with Tween-80
[9] = dose: 25.0 mg/kg/injection, schedule: Q04DX002 (ip), vehicle: saline with Tween-80
[10] = dose: 25.0 mg/kg/injection, schedule: Q04DX003 (ip), vehicle: saline
[11] = dose: 50.0 mg/kg/injection, schedule: Q01DX001 (ip), vehicle: other
[12] = dose: 100.0 mg/kg/injection, schedule: Q01DX001 (ip), vehicle: other
[13] = dose: 200.0 mg/kg/injection, schedule: Q01DX001 (ip), vehicle: other

Measured: T/C

CN(C)/N=C\c1ccc(C(=O)O)cc1
inactive: dose: 50.0 mg/kg/injection, schedule: Q04DX003 (ip), vehicle: Klucel (hydroxypropylcellulose) (HPC) 92 % of control | [1] 114 % of control | [2] 88 % of control | [3] 109 % of control | [4] 95 % of control | dose: 200.0 mg/kg/injection, schedule: Q04DX003 (ip), vehicle: saline 114 % of control | [5] 93 % of control | dose: 400.0 mg/kg/injection, schedule: Q04DX003 (ip), vehicle: saline 100 % of control

CC(C)(CCl)c1ccc(C(C)(C)CCl)cc1
inactive: dose: 50.0 mg/kg/injection, schedule: Q04DX002 (ip), vehicle: Klucel (hydroxypropylcellulose) (HPC) 104 % of control | dose: 100.0 mg/kg/injection, schedule: Q04DX002 (ip), vehicle: Klucel (hydroxypropylcellulose) (HPC) 93 % of control | dose: 200.0 mg/kg/injection, schedule: Q04DX002 (ip), vehicle: Klucel (hydroxypropylcellulose) (HPC) 93 % of control

O=C1NC(=O)N(c2ccc(Cl)cc2)C1=O
inactive: dose: 100.0 mg/kg/injection, schedule: Q04DX002 (ip), vehicle: saline with Tween-80 111 % of control | dose: 200.0 mg/kg/injection, schedule: Q04DX002 (ip), vehicle: saline with Tween-80 90 % of control

O=C(O)C1=CC2C3C=C(C(=O)O)C(C3)C2C1 (stereo not given)
inactive: [6] 96 % of control | [7] 96 % of control | dose: 400.0 mg/kg/injection, schedule: Q01DX001 (ip), vehicle: Klucel (hydroxypropylcellulose) (HPC) 97 % of control

CCP1CCC(=NNC(N)=S)CC1 (stereo not given)
inactive: [8] 95 % of control | [9] 95 % of control | dose: 50.0 mg/kg/injection, schedule: Q04DX002 (ip), vehicle: saline with Tween-80 93 % of control

CN(C)Cc1ccc(N)cc1
inactive: dose: 10.0 mg/kg/injection, schedule: Q01DX009 (ip), vehicle: water 107 % of control | dose: 20.0 mg/kg/injection, schedule: Q01DX009 (ip), vehicle: water 105 % of control | dose: 40.0 mg/kg/injection, schedule: Q01DX009 (ip), vehicle: water 107 % of control | dose: 50.0 mg/kg/injection, schedule: Q01DX009 (ip), vehicle: water 91 % of control | dose: 80.0 mg/kg/injection, schedule: Q01DX009 (ip), vehicle: water 96 % of control | dose: 100.0 mg/kg/injection, schedule: Q01DX009 (ip), vehicle: water 88 % of control | dose: 100.0 mg/kg/injection, schedule: Q04DX003 (ip), vehicle: water 100 % of control | dose: 200.0 mg/kg/injection, schedule: Q04DX003 (ip), vehicle: water 102 % of control

S=c1[nH]c(=S)c2[nH]c(=S)[nH]c2[nH]1
inactive: dose: 100.0 mg/kg/injection, schedule: Q01DX009 (ip), vehicle: Klucel (hydroxypropylcellulose) (HPC) 91 % of control | dose: 200.0 mg/kg/injection, schedule: Q01DX009 (ip), vehicle: Klucel (hydroxypropylcellulose) (HPC) 93 % of control | dose: 400.0 mg/kg/injection, schedule: Q01DX009 (ip), vehicle: Klucel (hydroxypropylcellulose) (HPC) 95 % of control

OC1(C2(O)CCCCC2)CCCCC1
inactive: dose: 100.0 mg/kg/injection, schedule: Q04DX002 (ip), vehicle: gum acacia 101 % of control | dose: 200.0 mg/kg/injection, schedule: Q04DX002 (ip), vehicle: gum acacia 104 % of control | dose: 400.0 mg/kg/injection, schedule: Q04DX002 (ip), vehicle: gum acacia 96 % of control

COc1ccc(/C=C(/C)C(=O)c2ccccc2)cc1
inactive: [2] 98 % of control | [4] 88 % of control | [5] 103 % of control

BrCc1cc(CBr)c(CBr)cc1CBr
inactive: dose: 12.5 mg/kg/injection, schedule: Q01DX009 (ip), vehicle: acetone 108 % of control | dose: 12.5 mg/kg/injection, schedule: Q04DX003 (ip), vehicle: saline 97 % of control | [10] 98 % of control and 114 % of control | [1] 95 % of control

CC1CCCC(Oc2nc3c(c(=O)n(C)c(=O)n3C)n2C)C1 (stereo not given)
inactive: [11] 93 % of control | [12] 93 % of control | [13] 88 % of control | dose: 400.0 mg/kg/injection, schedule: Q01DX001 (ip), vehicle: other 95 % of control

CC(=O)Nc1ccc(NC(C)=O)cc1
inactive: dose: 100.0 mg/kg/injection, schedule: Q04DX003 (ip), vehicle: saline with Tween-80 95 % of control | dose: 200.0 mg/kg/injection, schedule: Q04DX003 (ip), vehicle: saline with Tween-80 91 % of control | dose: 400.0 mg/kg/injection, schedule: Q04DX003 (ip), vehicle: saline with Tween-80 95 % of control

O=c1cc(NCc2cccc([N+](=O)[O-])c2)[nH]c(=O)[nH]1
inactive: dose: 50.0 mg/kg/injection, schedule: Q01DX001 (ip), vehicle: Klucel (hydroxypropylcellulose) (HPC) 91 % of control | [6] 89 % of control | [7] 93 % of control

O=C1Nc2ccccc2/C1=C/Cl
inactive: dose: 6.25 mg/kg/injection, schedule: Q04DX002 (ip), vehicle: saline with Tween-80 96 % of control | [8] 100 % of control | [9] 103 % of control

OCCOc1ccc(Cl)cc1Cl
inactive: [11] 101 % of control | dose: 75.0 mg/kg/injection, schedule: Q01DX009 (ip), vehicle: saline with Tween-80 101 % of control | [12] 103 % of control | dose: 150.0 mg/kg/injection, schedule: Q01DX009 (ip), vehicle: saline with Tween-80 98 % of control | [13] 103 % of control | dose: 300.0 mg/kg/injection, schedule: Q01DX009 (ip), vehicle: saline with Tween-80 109 % of control

O=C1C=C(OCc2ccccc2)C(=O)C(OCc2ccccc2)=C1
inactive: [2] 93 % of control | [4] 96 % of control | [5] 95 % of control

CN(C)CC(CN1c2ccccc2Sc2ccccc21)N(C)C (stereo not given)
inactive: dose: 6.25 mg/kg/injection, schedule: Q01DX009 (ip), vehicle: saline 94 % of control | dose: 12.5 mg/kg/injection, schedule: Q01DX009 (ip), vehicle: saline 105 % of control | dose: 25.0 mg/kg/injection, schedule: Q01DX009 (ip), vehicle: saline 92 % of control | [10] 96 % of control | dose: 50.0 mg/kg/injection, schedule: Q01DX009 (ip), vehicle: saline 101 % of control | [1] 93 % of control | [3] 90 % of control

Oc1c(Cl)cc(N=Cc2ccc(N(CCCCl)CCCCl)cc2)cc1Cl
inactive: [2] 101 % of control | [4] 101 % of control | [5] 102 % of control

O=c1[nH]cc([N+](=O)[O-])c(=O)[nH]1
inactive: dose: 100.0 mg/kg/injection, schedule: Q04DX002 (ip), vehicle: saline 100 % of control | dose: 200.0 mg/kg/injection, schedule: Q04DX002 (ip), vehicle: saline 106 % of control | dose: 400.0 mg/kg/injection, schedule: Q04DX002 (ip), vehicle: saline 95 % of control

CS(=O)(=O)c1nnc(-c2ccc(Cl)c(Cl)c2)s1
inactive: dose: 75.0 mg/kg/injection, schedule: Q01DX001 (ip), vehicle: saline 101 % of control | dose: 75.0 mg/kg/injection, schedule: Q04DX003 (ip), vehicle: saline 110 % of control | dose: 150.0 mg/kg/injection, schedule: Q01DX001 (ip), vehicle: saline 100 % of control | dose: 150.0 mg/kg/injection, schedule: Q04DX003 (ip), vehicle: saline 95 % of control | dose: 300.0 mg/kg/injection, schedule: Q01DX001 (ip), vehicle: saline 110 % of control
